Measured values: PMC6733959, “Synthesis and Evaluations of Novel Apocynin Derivatives as Anti-Glioma Agents” (Frontiers in Pharmacology, 2019)

Key:
rat BMECs = assay: Cytotoxicity of apocynin derivatives on rat BMECs (MTT, 24 h); type: cell-based; conditions: 100 μM, vs control, P < 0.05
Experimental: (§1) Rat brain microvascular endothelial cells (BMECs) were separated from the cerebral cortex of 18-day-old male Sprague-Dawley rats as described previously ([Biegel et al., 1995]). Briefly, the cerebral cortical tissues were dissected from meninges after the rats were sacrificed, then the tissues were homogenated in physiological buffer solution (pH 7.4). After centrifugation, the pellets were collected, and the microvascular segments were then digested with 0.1% collagenase II at 37°C for 1 h. […] The second passage was used for co-culture of BBB cellular models.
Rat BMECs were collected and seeded into 96-well culture plates at a density of 7.5 × 10^3 cells/well overnight. The cells were treated with different concentrations of the compounds (10, 20, and 100 μM) for 24 h, respectively. Then, 20-μl MTT (5 mg/ml) in fresh medium was added to each well and incubated for another 4 h. Finally, 150μl dimethyl sulfoxide (DMSO) was added to dissolve formazan crystals, and the absorbance was detected at 490 nm in a multiwall-plate reader (BioTek ELx800).

[1] = parameters: method as in Wang et al., 2008; conditions: ref Wang et al., 2008; cited from earlier work
NADPH oxidase (NOX) [2] = assay: NOX activity determination, C6 cells; type: cell-based, rat; conditions: 20 and 50 μM
Experimental: (§2) The effects of candidate drug on NOX activities were measured using cytochrome c reductase (NADPH) Assay Kit (Sigma-Aldrich, St. Louis, MO, USA). Brieﬂy, after the compound treatment (20, 50 μM), the cells were collected and homogenized in an isotonic buffer ([…]), and centrifuged at 1,000 g to obtain the post-nuclear supernatants. Then 50μl samples were added to 950μl working solution (at 25°C) in a 1ml cuvette and mixed by inversion. Then 20μl cytochrome c oxidase inhibitor solution was added. After reaction with 100 μl NADPH solution, the cytochrome c absorbance was monitored at 550 nm by a spectrophotometer.

[3] = Transport experiment in the in vitro BBB cell model; type: in vitro ADME; conditions: Sprague-Dawley, rat, apical to basolateral, mean ± SD (n = 3-4), read-out: Papp × 10^−6; for Papp at 90 min, 20 μM: C0 20 μM; for Papp at 90 min, 100 μM: C0 100 μM
Experimental: as §1
Astrocytes were separated from the cerebral cortex of newborn Sprague-Dawley rats (1–2 days) as described previously ([Jeliazkova-Mecheva and Bobilya, 2003]). The brain tissues (removal of the meninges and blood vessel) were minced and mechanical homogenized and then digested with 0.25% trypsin-EDTA at 37°C for 10 min.
The in vitro BBB cell model was constructed in the Transwell 24well plate ([…], Millipore, USA). Before the experiment, the transwell filters were coated with matrigel matrix. The isolated rat astroglias were seeded onto one side of polycarbonate inserts (5 × 10^4 cells/insert). After 3 to 5 days, the rat BMECs were seeded at a density of 1.5 × 10^5 cells/insert onto the opposite side of the inserts to produce rat BMEC monolayers. The in vitro BBB cell model was formed 3 to 4 days. Trans-epithelial electrical resistance (TEER) measurements were performed everyday after the co-cultures formed until the TEER value increased to […] ([Yang et al., 2014]) ( Figure 2C ).
The transport experiments were performed by adding 400 μl HBSS containing the compounds to the apical side (AP), with 600μl HBSS to the basolateral side (BL) at the same time. Samples (60 μl) were collected from the BL chamber at the time points of 15, 30, 60, 90, 120, and 180 min, and the corresponding volume of HBSS buffer was immediately added into the BL chamber. The samples were precipitated by methanol, and the concentrations of the compounds in the samples were determined by high-performance liquid chromatography (HPLC). The HPLC conditions were as follows: Agilent TC-C18 column (250 × 4.6 mm; 5 μm), methanol 1% ethanoic acid mobile phase (from 10:90 to 90:10, v/v), with gradient elution at a flow rate of 1.0 ml/min. The detection wavelength was 275 nm for these compounds. The run time was 20 min. The apparent permeability coefficients (P app) were calculated from the following formula: P app = (∆Q/∆t)/(A × C 0), where ∆Q/∆t is the linear appearance rate of the compound on the BL side (μmol/s), A is the surface area of the cell monolayer (cm^2), and C 0 is the initial concentration of the drug on the AP side (μmol/L).

NADPH oxidase (NOX) [4] = assay: NOX activity determination, U87 cells; type: cell-based, human; conditions: 20 and 50 μM
Experimental: as §2

rat C6 glioma cells = assay: Anti-glioma MTT assay, C6 cells; type: cell-based; conditions: for Anti-proliferation effect on C6 cells (first screening): 10, 20, 100 μM, compared with D1, P < 0.05; for IC50: Rattus norvegicus, C6 cells
Experimental: (§3) The anti-glioma effects of these compounds were evaluated by MTT assay in rat C6 glioma cells, human glioma U87 and U251 cells, and BMECs cells. Brieﬂy, cells were seeded at the density of 4,000 cells/well in 96-well plates overnight. For the first screening, the cells were incubated with 10, 20, 100 μM compounds for 48 h. Then cell viabilities were detected by MTT assay as described above. For the second screening, the cells were incubated with 6.25-, 12.5-, 25-, 50-, and 100μM compounds for 48 and 96 h, and then detected by MTT assay. The OD of each well was measured at 490 nm on an ELISA microplate reader. The inhibitory rates and IC50 values were calculated.

human glioma U251 cells = assay: Anti-glioma MTT assay, U251 cells; type: cell-based
Experimental: as §3

BMECs = assay: MTT assay on normal BMECs (48 and 96 h); type: cell-based; conditions: Rattus norvegicus
Experimental: as §1, §3

C6 glioma = assay: Rat C6 glioma model; type: in vivo; conditions: C6 glioma-bearing Wistar rats, 25 mg/kg i.p. daily; for Tumor volume vs control group: MRI 13 days after treatment
Experimental: C6 glioma model was established as previously reported ([Xu etal., 2016]). The C6 glioma cells in the logarithmic growth phase were collected for implantation. Male Wistar rats (male, 160–180g) were anesthetized with 10% chloral hydrate, and then a hole (1 mm diameter) was drilled in the cranial bone. C6 cells in PBS were injected slowly (3 × 10^6 cells/rat).
Tumors in the brains of the rats were detected by Bruker 7.0 T Micro-MRI using a T2W RARE sequence (TR/TE 3000/15 ms; slice thickness, 1.0 mm; flip angle, 180°; Matrix 256×256; slice gap, 1.0 mm; FOV, 33×33 mm; time, 4.8 min) 7 days after implantation. Tumor volumes (V) were calculated by the following formula: V = (4/3 × π × LHW)/8, where L is the maximum anteroposterior diameter, H and W are the height and width. Then the rats were sacrificed, and the brain tissues were fixed with formalin, embedded in paraffin, sectioned, and subjected to hematoxylin/eosin (HE) staining and immunohistochemical staining for glial fibrillary acidic protein (GFAP) as previously described ([Xu et al., 2016]). The sections from each animal were analyzed by a pathologist. Only rats with maximum intracerebral tumor diameter of >5.0 mm were used.
After the successful implantation, the rats were randomly divided into […] and treated with different drugs by intraperitoneal injection daily: control group (PBS, n = 6), TMZ group (25 mg/kg, n = 6), D14 group (25 mg/kg, n = 6), and D31 group (25 mg/kg, n = 6). The body weights were recorded everyday after administration. Thirteen days after treatment, brain tumors in the rats were detected by Bruker 7.0 T Micro-MRI as described above. Tumor volumes were calculated and recorded as above.

human glioma U87 cells = assay: Anti-glioma MTT assay, U87 cells; type: cell-based; conditions: for Anti-proliferation effect on U87 cells (first screening): 10, 20, 100 μM, compared with D1, P < 0.05; for IC50: Homo sapiens, U-87 MG, U87 cells
Experimental: as §3

[5] = cited from earlier work; for BBB penetration rate relative to morphine: ref Oldendorf et al., 1972

COc1cc(C(C)=O)ccc1O [Compound D1, 4-hydroxy-3-methoxyacetophenone, reference compound]
Effect on cell viability of rat BMECs (rat BMECs): significantly inhibit the cell viability | Amount in the brain tissue relative to that present in the blood [1]: < 8% | Effect on NOX activities vs control (NADPH oxidase (NOX) [2]): significantly inhibited | Papp at 90 min, 20 μM [3]: 4.95 ± 0.39 ×10⁻⁶ cm/s | Effect on NOX activities vs control (NADPH oxidase (NOX) [4]): significantly inhibited

COc1cc(C(=O)CNc2ccccc2)ccc1OCc1ccccc1 [Compound D5, 1-(4-(Benzyloxy)-3-Methoxyphenyl)-2-(Phenylamino)Ethan-1-One]
Papp at 90 min, 100 μM [3]: 10.3 ± 0.31 ×10⁻⁶ cm/s

COc1cc(C(=O)CNc2ccc(F)cc2)ccc1OCc1ccccc1 [Compound D6, 1-(4-(Benzyloxy)-3-Methoxyphenyl)-2-((4-Fluorophenyl)Amino) Ethan-1-One]
Papp at 90 min, 100 μM [3]: 8.68 ± 0.45 ×10⁻⁶ cm/s

COc1cc(C(=O)CNc2ccccc2)ccc1O [Compound D13, 1-(4-Hydroxy-3-Methoxyphenyl)-2-(Phenylamino)Ethan-1-One]
Effect on cell viability of rat BMECs (rat BMECs): significantly inhibit the cell viability | Anti-proliferation effect on C6 cells (first screening) (rat C6 glioma cells; 48 h): significant anti-proliferation effects | Papp at 90 min, 20 μM [3]: 5.41 ± 0.52 ×10⁻⁶ cm/s

COc1cc(C(=O)CNc2ccc(F)cc2)ccc1O [Compound D14, 2-((4-Fluorophenyl)amino)-1-(4-Hydroxy-3-Methoxyphenyl)Ethan-1-One]
IC50 (human glioma U251 cells; U-251, 48 h): 71.6 µM | IC50 (human glioma U251 cells; U-251, 96 h): 34.5 µM | Effect on cell viability of rat BMECs (rat BMECs): significantly inhibit the cell viability | IC50 (BMECs; 48 h): > 100 µM | IC50 (BMECs; 96 h): 78.2 µM | Anti-proliferation effect on C6 cells (first screening) (rat C6 glioma cells; 48 h): significant anti-proliferation effects | IC50 (rat C6 glioma cells; 48 h): 37.2 µM | IC50 (rat C6 glioma cells; 96 h): 22.9 µM | Papp at 90 min, 20 μM [3]: 4.24 ± 1.3 ×10⁻⁶ cm/s | Body weight changes vs control group (C6 glioma): no obvious body weight changes | Tumor volume vs control group (C6 glioma): no obvious growth inhibitory effects | Anti-proliferation effect on U87 cells (first screening) (human glioma U87 cells; 48 h): significant anti-proliferation effects | IC50 (human glioma U87 cells; 48 h): 61.6 µM | IC50 (human glioma U87 cells; 96 h): 60.1 µM

COc1cc(NCC(=O)c2ccc(O)c(OC)c2)cc(OC)c1 [Compound D16, 2-((3,5-Dimethoxyphenyl)Amino)-1-(4-Hydroxy-3-Methoxyphenyl)Ethan-1-One]
Effect on cell viability of rat BMECs (rat BMECs): significantly inhibit the cell viability | Papp at 90 min, 20 μM [3]: 2.54 ± 0.58 ×10⁻⁶ cm/s

COc1cc(C(=O)CNc2ccc(F)cc2F)ccc1O [Compound D21, 2-((2,4-Difluorophenyl)Amino)-1-(4-Hydroxy-3-Methoxyphenyl)Ethan-1-One]
Papp at 90 min, 100 μM [3]: 6.08 ± 0.65 ×10⁻⁶ cm/s

COc1cc(C(=O)CNc2ccc(Cl)cc2)ccc1O [Compound D22, 2-((4-Chlorophenyl)Amino)-1-(4-Hydroxy-3-Methoxyphenyl)Ethan-1-One]
Papp at 90 min, 100 μM [3]: 5.42 ± 0.58 ×10⁻⁶ cm/s

COc1cc(C(=O)CSCc2ccccc2)ccc1O [Compound D33, 2-(Benzylthio)-1-(4-Hydroxy-3-Methoxyphenyl)Ethan-1-One]
Effect on cell viability of rat BMECs (rat BMECs): significantly inhibit the cell viability | Anti-proliferation effect on C6 cells (first screening) (rat C6 glioma cells; 48 h): significant anti-proliferation effects | Papp at 90 min, 20 μM [3]: 9.58 ± 2.35 ×10⁻⁶ cm/s

COc1cc(C(=O)CSCc2ccc(F)cc2)ccc1O [Compound D34, 2-((4-Fluorobenzyl)Thio)-1-(4-Hydroxy-3-Methoxyphenyl)Ethan-1-One]
Effect on cell viability of rat BMECs (rat BMECs): significantly inhibit the cell viability | Anti-proliferation effect on C6 cells (first screening) (rat C6 glioma cells; 48 h): significant anti-proliferation effects | Papp at 90 min, 20 μM [3]: 11.9 ± 1.53 ×10⁻⁶ cm/s

CCC1(c2ccccc2)C(=O)NC(=O)NC1=O [Phenobarbital, 5-ethyl-5-phenylbarbituric acid]
BBB penetration rate relative to barbituric acid ([5]; ref Liu et al., 2007): increased BBB penetration rate

Cn1nnc2c(C(N)=O)ncn2c1=O [TMZ, Temozolomide, reference compound]
IC50 (human glioma U251 cells; U-251, 48 h): 48.1 µM | IC50 (human glioma U251 cells; U-251, 96 h): 15.3 µM | Effect on cell viability of rat BMECs (rat BMECs): significantly inhibit the cell viability | IC50 (BMECs; 48 h): 94.5 µM | IC50 (BMECs; 96 h): 54.4 µM | Anti-proliferation effect on C6 cells (first screening) (rat C6 glioma cells; 48 h): significant anti-proliferation effects | IC50 (rat C6 glioma cells; 48 h): 51.1 µM | IC50 (rat C6 glioma cells; 96 h): 36.8 µM | Papp at 90 min, 20 μM [3]: 7.74 ± 0.34 ×10⁻⁶ cm/s | Body weight changes vs control group (C6 glioma): no obvious body weight changes | Tumor volume vs control group (C6 glioma): significantly decreased | Anti-proliferation effect on U87 cells (first screening) (human glioma U87 cells; 48 h): significant anti-proliferation effects | IC50 (human glioma U87 cells; 48 h): 54.1 µM | IC50 (human glioma U87 cells; 96 h): 28.4 µM

COc1ccc2c3c1O[C@H]1[C@@H](O)C=C[C@H]4[C@@H](C2)N(C)CC[C@@]341 [codeine]
BBB penetration rate relative to morphine [5]: 10 times

CC(=O)Oc1ccc2c3c1O[C@H]1[C@@H](OC(C)=O)C=C[C@H]4[C@@H](C2)N(C)CC[C@@]341 [heroin, diacetylmorphine]
BBB penetration rate relative to morphine [5]: 100 times
